Experimental data reported in ChEMBL document CHEMBL5331078, “1-Benzyloxy-5-phenyltetrazole derivatives highly active against androgen receptor-dependent prostate cancer cells” (Eur J Med Chem, 2023).
The source made the active and inactive calls. The rule behind the calls is not given here.

What was measured:
CWR22R [1] = experiment: Downregulation of POLE2 gene expression in human 22Rv1 cells at 1 uM measured after 24 to 36 hrs by RNA sequencing analysis; assay type: functional, cell-based; conditions: time 24-36 hrs
[2] = Volume of distribution at steady state in rat at 5 mg/kg, iv measured upto 24 hrs by LC-MS/MS analysis; assay type: ADME, organism-based; conditions: in vivo, read-out: Vdss
[3] = Clearance in rat at 5 mg/kg, iv measured upto 24 hrs by LC-MS/MS analysis; assay type: ADME, organism-based; conditions: in vivo
[4] = Antiproliferative activity against Ar-luc mouse Adipose stromal cell measured after 3 days by celltiter-glo luminescence assay; assay type: toxicity, cell-based; conditions: Ar-luc mouse adipose stromal cells
Papain = biological target: T1, Papain (Carica papaya, UniProt P00784); experiment: Inhibition of papaya papain protease activity assessed as covalent binding mode of action at 10 uM incubated for 30 mins by absorbance based analysis; conditions: 0.5 h
T1 sequence (P00784 whole entry): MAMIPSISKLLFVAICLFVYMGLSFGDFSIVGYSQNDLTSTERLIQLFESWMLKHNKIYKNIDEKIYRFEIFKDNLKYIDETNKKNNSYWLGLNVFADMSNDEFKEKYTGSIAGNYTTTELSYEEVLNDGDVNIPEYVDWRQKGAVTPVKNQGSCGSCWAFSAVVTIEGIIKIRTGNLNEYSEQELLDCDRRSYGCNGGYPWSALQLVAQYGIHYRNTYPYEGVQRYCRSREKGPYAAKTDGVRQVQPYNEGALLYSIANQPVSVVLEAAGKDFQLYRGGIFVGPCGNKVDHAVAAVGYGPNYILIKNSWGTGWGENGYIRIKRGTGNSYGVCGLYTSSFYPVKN

[5] = Kinetic solubility of the compound in 0.01 M HCl at pH 2 after 30 mins by nephelometry; assay type: physicochemical; conditions: read-out: Kinetic_solubility
CWR22R [6] = experiment: Downregulation of androgen receptor in human 22Rv1 cells measured for 24 to 36 hrs by Western blot analysis; assay type: functional, cell-based; conditions: dose 0.5-10 µM, time 24-36 hrs
CWR22R [7] = experiment: Downregulation of androgen receptor in human 22Rv1 cells at 0.5 to 10 uM by Western blot analysis; assay type: functional, cell-based; conditions: dose 0.5-10 µM, time 24-36 hrs, TDE = time-dependent effect
CWR22R [8] = experiment: Downregulation of UHRF1 gene expression in human 22Rv1 cells at 1 uM measured after 24 to 36 hrs by RNA sequencing analysis; assay type: functional, cell-based; conditions: time 24-36 hrs

Clc1ccc(COn2nnnc2-c2ccc(Cl)cc2)cc1
Activity (CWR22R [1]): Active | Vd [2]: 1.53 L/kg | clearance [3]: 75.9 mL/min/kg | IC50 at 3 days [4]: > 100 µM | inhibition (INH) (Papain): Not Active | solubility kinetic at 0.5 h [5]: < 1.6 µg/mL | Activity (CWR22R [6]): Dose-Dependent Effect | Activity (CWR22R [7]): Tde | Activity (CWR22R [8]): Active
